Assay results as given in patent US9181186B2, “Aromatic ring compound” (TAKEDA PHARMACEUTICAL COMPANY LIMITED, priority 2012, dated 2015).

Molecular target: T1, human GPR40 (Homo sapiens, UniProt O14842)
T1 construct: expressed in transfected cells
Experiment: Evaluation of human GPR40 agonist activity with increase in intracellular Ca2+ concentration as an index (FLIPR Tetra)
Type: cell-based
Conditions: test compound 1 μM; CHO(dhfr−) cells stably expressing human GPR40; 100% = 1 μM WO2009/048527 Example 99.2, 0% = DMSO
Protocol: Evaluation of Human GPR40 Agonist Activity with Increase in Intracellular Ca^2+ Concentration as an Index
CHO(dhfr−) cells that stably expressed human GPR40 were suspended in MEMα (Nikken Bio Medical Laboratory) containing 10% dialysis serum (GEMINI BIO-PRODUCTS), 10 mM HEPES (Invitrogen), 100 U/mL penicillin, 100 μg/mL streptomycin (Invitrogen), and plated on a 384 well black/clear cell culture plate at 10,000 cells/well. After culture overnight in a CO2 incubator at 37° C., the culture supernatant was removed, and a loading buffer [dye attached to Calcium 5 Assay Kit (Molecular Devices) was dissolved in an assay buffer (20 mM HEPES, 0.2% fatty acid-free BSA (Sigma-Aldrich), 2.5 mM probenecid (DOJINDO)-containing HBSS (Invitrogen)) added with 0.025% Cremophor EL (DOJINDO)] was added at 37.5 μL/well. After incubation in a CO2 incubator at 37° C. for 1 hr, the cells were stood at room temperature for 15 min, an assay buffer containing the test compound at a final concentration of 1 μM was added at 12.5 μL/well in FLIPR Tetra (Molecular Devices), and the fluorescence amount was successively measured. Human GPR40 agonist activity calculated using an increase in the intracellular Ca^2+ concentration as an index, wherein the activity of 1 μM of the compound described in WO 2009/048527 (WO2009/048527 Example 99.2) was 100%, and the activity when DMSO was added instead of the test compound was 0%.

T1 sequence (O14842 whole entry): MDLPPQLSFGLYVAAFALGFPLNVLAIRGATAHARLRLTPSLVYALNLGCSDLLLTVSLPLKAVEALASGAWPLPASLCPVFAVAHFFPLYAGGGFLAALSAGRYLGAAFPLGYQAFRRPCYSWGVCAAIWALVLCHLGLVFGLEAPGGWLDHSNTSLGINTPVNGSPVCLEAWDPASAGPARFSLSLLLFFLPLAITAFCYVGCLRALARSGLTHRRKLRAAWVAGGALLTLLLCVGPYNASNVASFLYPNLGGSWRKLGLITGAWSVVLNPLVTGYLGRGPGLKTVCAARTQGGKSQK

In order of falling activation at 1 µM:
1. COc1ccc(F)c(-c2ncc(COc3cccc(C(CC(=O)O)C4CC4)c3)cc2CC(C)(C)C)c1 (stereo not shown) [Example 34, 3-cyclopropyl-3-(3-((5-(2,2-dimethylpropyl)-6-(2-fluoro-5-methoxyphenyl)pyridin-3-yl)methoxy)phenyl)propanoic acid]  118%
2. COc1ccc(F)c(-c2ncc(COc3cc(C(CC(=O)O)C4CC4)c(F)cn3)cc2CC2(C#N)CCCC2)c1 (stereo not shown) [Example 43, 3-(2-((5-((1-cyanocyclopentyl)methyl)-6-(2-fluoro-5-methoxyphenyl)pyridin-3-yl)methoxy)-5-fluoropyridin-4-yl)-3-cyclopropylpropanoic acid]  115%
3. COc1ccc(F)c(-c2ccc(COc3cc(C(CC(=O)O)C4CC4)c(F)cn3)nc2CC(C)(C)C)c1 (stereo not shown) [Example 42, 3-cyclopropyl-3-(5-fluoro-2-((5-(2-fluoro-5-methoxyphenyl)-6-neopentylpyridin-2-yl)methoxy)pyridin-4-yl)propanoic acid]  115%
4. COc1ccc(F)c(-c2ncc(COc3cc(C(CC(=O)O)C4CC4)ccn3)cc2CC(C)(C)C)c1 (stereo not shown) [Example 40, 3-cyclopropyl-3-(2-((5-(2,2-dimethylpropyl)-6-(2-fluoro-5-methoxyphenyl)pyridin-3-yl)methoxy)pyridin-4-yl)propanoic acid]  113%
5. COc1ccc(F)c(-c2ccc(COc3cc(C(CC(=O)O)C4CC4)ccn3)nc2CC(C)(C)C)c1 (stereo not shown) [Example 30, 3-cyclopropyl-3-(2-((6-(2,2-dimethylpropyl)-5-(2-fluoro-5-methoxyphenyl)pyridin-2-yl)methoxy)pyridin-4-yl)propanoic acid]  112%
6. COc1ccc(F)c(-c2ccc(COc3cc(C(CC(=O)O)C4CC4)ccc3OC)nc2CC(C)(C)C)c1 (stereo not shown) [Example 12, 3-cyclopropyl-3-(3-((6-(2,2-dimethylpropyl)-5-(2-fluoro-5-methoxyphenyl)pyridin-2-yl)methoxy)-4-methoxyphenyl)propanoic acid]  112%
7. COc1ccc(F)c(-c2cnc(COc3cc(C(CC(=O)O)C4CC4)ncn3)nc2OCC(C)C)c1 (stereo not shown) [Example 41, 3-cyclopropyl-3-(6-((5-(2-fluoro-5-methoxyphenyl)-4-isobutoxypyrimidin-2-yl)methoxy)pyrimidin-4-yl)propanoic acid]  110%
8. COc1ccc(F)c(-c2ccc(COc3cc(CCC(=O)O)ccc3C)nc2CC(C)(C)C)c1 [Example 13, 3-(3-((6-(2,2-dimethylpropyl)-5-(2-fluoro-5-methoxyphenyl)pyridin-2-yl)methoxy)-4-methylphenyl)propanoic acid]  110%
9. COc1ccc(F)c(-c2ccc(COc3cc(F)cc(CCC(=O)O)c3)nc2CC(C)(C)C)c1 [Example 16, 3-(3-((6-(2,2-dimethylpropyl)-5-(2-fluoro-5-methoxyphenyl)pyridin-2-yl)methoxy)-5-fluorophenyl)propanoic acid]  109%
10. COc1ccc(F)c(-c2ccc(COc3ccc(F)c(CCC(=O)O)c3)nc2CC(C)(C)C)c1 [Example 19, 3-(5-((6-(2,2-dimethylpropyl)-5-(2-fluoro-5-methoxyphenyl)pyridin-2-yl)methoxy)-2-fluorophenyl)propanoic acid]  109%
11. COc1ccc(F)c(-c2ccc(COc3ccc(C)c(CCC(=O)O)c3)nc2CC(C)(C)C)c1 [Example 17, 3-(5-((6-(2,2-dimethylpropyl)-5-(2-fluoro-5-methoxyphenyl)pyridin-2-yl)methoxy)-2-methylphenyl)propanoic acid]  109%
12. COc1ccc(F)c(-c2ccc(COc3ccc(OC)c(CCC(=O)O)c3)nc2CC(C)(C)C)c1 [Example 18, 3-(5-((6-(2,2-dimethylpropyl)-5-(2-fluoro-5-methoxyphenyl)pyridin-2-yl)methoxy)-2-methoxyphenyl)propanoic acid]  109%
13. COc1ccc(F)c(-c2ccc(COc3cc(C(CC(=O)O)C4CC4)ncn3)nc2OCC(C)C)c1 (stereo not shown) [Example 2, 3-cyclopropyl-3-(6-((5-(2-fluoro-5-methoxyphenyl)-6-isobutoxypyridin-2-yl)methoxy)pyrimidin-4-yl)propanoic acid]  107%
14. COc1ccc(F)c(-c2ncc(COc3cc(C(CC(=O)O)C4CC4)ncn3)cc2OCC(C)(C)C)c1 (stereo not shown) [Example 36, 3-cyclopropyl-3-(6-((5-(2,2-dimethylpropoxy)-6-(2-fluoro-5-methoxyphenyl)pyridin-3-yl)methoxy)pyrimidin-4-yl)propanoic acid]  106%
15. COc1ccc(F)c(-c2ccc(COc3cc(C(CC(=O)O)C4CC4)ncn3)nc2CC(C)(C)C)c1 (stereo not shown) [Example 8, 3-cyclopropyl-3-(6-((6-(2,2-dimethylpropyl)-5-(2-fluoro-5-methoxyphenyl)pyridin-2-yl)methoxy)pyrimidin-4-yl)propanoic acid]  106%
16. COc1ccc(F)c(-c2ncc(COc3cc(C(CC(=O)O)C4CC4)ncn3)cc2OCC(C)C)c1 (stereo not shown) [Example 32, 3-cyclopropyl-3-(6-((6-(2-fluoro-5-methoxyphenyl)-5-isobutoxypyridin-3-yl)methoxy)pyrimidin-4-yl)propanoic acid]  104%
17. COc1ccc(F)c(-c2ncc(COc3cccc(C(CC(=O)O)C4CC4)c3)cc2OCC(C)C)c1 (stereo not shown) [Example 31, 3-cyclopropyl-3-(3-((6-(2-fluoro-5-methoxyphenyl)-5-isobutoxypyridin-3-yl)methoxy)phenyl)propanoic acid]  104%
18. COc1cc(CCC(=O)O)cc(OCc2ccc(-c3cc(OC)ccc3F)c(CC(C)(C)C)n2)c1 [Example 15, 3-(3-((6-(2,2-dimethylpropyl)-5-(2-fluoro-5-methoxyphenyl)pyridin-2-yl)methoxy)-5-methoxyphenyl)propanoic acid]  103%
19. COc1ccc(F)c(-c2ccc(COc3cccc(CCC(=O)O)c3F)nc2CC(C)(C)C)c1 [Example 22, 3-(3-((6-(2,2-dimethylpropyl)-5-(2-fluoro-5-methoxyphenyl)pyridin-2-yl)methoxy)-2-fluorophenyl)propanoic acid]  103%
20. COc1ccc(F)c(-c2ccc(COc3cccc(CCC(=O)O)c3)nc2CC(C)(C)C)c1 [Example 29, 3-(3-((6-(2,2-dimethylpropyl)-5-(2-fluoro-5-methoxyphenyl)pyridin-2-yl)methoxy)phenyl)propanoic acid]  103%
21. COc1ccc(F)c(-c2ncc(COc3cc(C(CC(=O)O)C4CC4)ncn3)cc2OCCC(F)(F)F)c1 (stereo not shown) [Example 37, 3-cyclopropyl-3-(6-((6-(2-fluoro-5-methoxyphenyl)-5-(3,3,3-trifluoropropoxy)pyridin-3-yl)methoxy)pyrimidin-4-yl)propanoic acid]  101%
22. COc1ccc(F)c(-c2ncc(COc3cc(C(CC(=O)O)C4CC4)ncn3)cc2CC(C)(C)C)c1 (stereo not shown) [Example 35, 3-cyclopropyl-3-(6-((5-(2,2-dimethylpropyl)-6-(2-fluoro-5-methoxyphenyl)pyridin-3-yl)methoxy)pyrimidin-4-yl)propanoic acid]  101%
23. COc1ccc(F)c(-c2ccc(COc3cccc(C(CC(=O)O)C4CC4)c3)nc2OCC(C)C)c1 (stereo not shown) [Example 1, 3-cyclopropyl-3-(3-((5-(2-fluoro-5-methoxyphenyl)-6-isobutoxypyridin-2-yl)methoxy)phenyl)propanoic acid]  100%
24. COc1ccc(F)c(-c2ccc(COc3cccc(C(CC(=O)O)C4CC4)c3)nc2CC(C)(C)C)c1 (stereo not shown) [Example 11, 3-cyclopropyl-3-(3-((6-(2,2-dimethylpropyl)-5-(2-fluoro-5-methoxyphenyl)pyridin-2-yl)methoxy)phenyl)propanoic acid]  100%
25. COc1ccc(F)c(-c2ccc(COc3cc(C)cc(CCC(=O)O)c3)nc2CC(C)(C)C)c1 [Example 23, Sodium 3-(3-((6-(2,2-dimethylpropyl)-5-(2-fluoro-5-methoxyphenyl)pyridin-2-yl)methoxy)-5-methylphenyl)propanoate]  99%
26. COc1ccc(F)c(-c2cnc(COc3cc(C(CC(=O)O)C4CC4)ncn3)cc2OCC(C)C)c1 (stereo not shown) [Example 6, 3-cyclopropyl-3-(6-((5-(2-fluoro-5-methoxyphenyl)-4-isobutoxypyridin-2-yl)methoxy)pyrimidin-4-yl)propanoic acid]  98%

In order of falling “Human GPR40 agonist activity (increase in intracellular Ca2+ concentration)” value:
1. COc1ccc(F)c(-c2ncc(COc3cc(C(CC(=O)O)C4CC4)c(F)cn3)cc2CC2(C#N)CCCC2)c1 (stereo not shown) [Example 44, 3-(2-((5-((1-cyanocyclopentyl)methyl)-6-(2-fluoro-5-methoxyphenyl)pyridin-3-yl)methoxy)-5-fluoropyridin-4-yl)-3-cyclopropylpropanoic acid]  107%
2. COc1ccc(F)c(-c2ccc(COc3cccc(C(CC(=O)O)C4CC4)c3)nc2CC(C)(C)C)c1 (single isomer, unassigned) [Example 7, 3-cyclopropyl-3-(3-((6-(2,2-dimethylpropyl)-5-(2-fluoro-5-methoxyphenyl)pyridin-2-yl)methoxy)phenyl)propanoic acid]  106%
